Literature values, collected in patent publication US5998416A, “Piperazine, piperidine and tetrahydropyridine derivatives as 5-HT receptor agonists” (Merck Sharp & Dohme Ltd., priority 1996, dated 1999).

Settings: therapeutic doses

CNS(=O)(=O)Cc1ccc2[nH]cc(CCN(C)C)c2c1 [sumatriptan]
adverse cardiovascular events in humans: certain adverse cardiovascular events
